Patent US20220112479A1, “COMPOUNDS STABILIZING AMYLASES IN LIQUIDS” (BASF SE, priority 2018, published 2022)

Key:
Assay type in all cases: biochemical
[1] = target: T1, Savinase Ultra 16.0L (Lederbergia lenta, UniProt P29600); experiment: protease storage stability in liquid formulation (Suc-AAPF-pNA substrate); details: storage at 37° C.
T1 construct: purchased Sigma-Aldrich
T1 sequence (P29600 1-269): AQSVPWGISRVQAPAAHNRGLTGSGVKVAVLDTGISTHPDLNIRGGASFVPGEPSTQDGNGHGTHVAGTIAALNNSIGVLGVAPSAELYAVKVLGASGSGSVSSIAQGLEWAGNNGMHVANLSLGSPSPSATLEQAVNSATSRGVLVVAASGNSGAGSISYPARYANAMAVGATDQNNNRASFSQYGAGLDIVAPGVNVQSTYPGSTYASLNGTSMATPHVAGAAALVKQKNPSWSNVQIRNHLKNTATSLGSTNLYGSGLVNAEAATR
In short: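 Savinase in liquid base formulations containing test salt, comparative compound or diethylene glycol; amounts given as active protein. Residual activity at set storage times measured with Suc-AAPF-pNA via pNA release at OD405, 20 °C. Activity expressed relative to reference formulation at time 0.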

[2] = system: Amy3=Stainzyme Plus L (12L); experiment: amylase storage stability in liquid formulation (pNP release from Ethyliden-blocked-pNPG7); details: base formulation II., 1.5 wt % component (a), storage at 37° C.
Method: (§1) The storage stability of amylase was assessed at 37° C.
Base test formulations were manufactured by making base formulations I to V by mixing the components according to Table 1.
Amylases used: Amy1=Stainzyme, Amy2=Amplify, Amy3=Stainzyme Plus L (12L)
The respective component (a) or comparative compound was added, if applicable, to the respective base formulation in amounts as indicated in Table 1.
The amount of amylase as provided in Table 1 refers to active protein.
Water was added to accomplish the balance to 100.
(§2) Amylase activity at certain points in time as indicated in Table 2 was measured quantitatively by the release of the chromophore para-nitrophenol (pNP) from the substrate (Ethyliden-blocked-pNPG7, Roche Applied Science 10880078103). The alpha-amylase degrades the substrate into smaller molecules and α-glucosidase (Roche Applied Science 11626329103), which is present in excess compared to the amylase, process these smaller products until pNP is released; the release of pNP, measured via an increase of absorption at 405 nm, is directly proportional to the amylase activity of the sample. Amylase standard: Termamyl 120 L (Sigma 3403).
(§3) The amylolytic activity values provided were calculated referring to the value determined in the reference formulation at the time 0.
(§4) The nomenclature of formulations is as follows: the Roman number before the full stop characterizes the base formulation, the Arabian number the type of compound (A.# compound according to invention (component (a)); B.# comparative compound).

[3] = system: Amylase; experiment: amylase storage stability in liquid laundry formulation (pNP release from Ethyliden-blocked-pNPG7); set-up: key: % of activity in reference formulation at time 0; details: 2.5 wt % component (a), storage at 37° C.
Method: as §1
Base test formulations were manufactured by making base formulations VI to IX by mixing the components according to Table 4.
as §2, with “Table 5” for “Table 2”
as §3, §4

`CCOC(=O)CC(O)(CC(=O)OCC)C(=O)OCC` [A.1, Triethylcitrate] was tested, and the “protease activity, referring to reference formulation at time 0” value (from here on “protease activity, referring”) ([1]; base formulation I., 1.5 wt % component (a), 3 d) was 97, the “protease activity, referring” value ([1]; base formulation I., 1.5 wt % component (a), 7 d) was 94 and the “protease activity, referring” value ([1]; base formulation I., 1.5 wt % component (a), 14 d) was 89. For the same molecule, the “protease activity, referring” value ([1]; base formulation I., 1.5 wt % component (a), 21 d) was 83, the “protease activity, referring” value ([1]; base formulation I., 1.5 wt % component (a), 28 d) was 79 and the “protease activity, referring” value ([1]; base formulation I., 1.5 wt % component (a), 42 d) was 67. The “protease activity, referring” value ([1]; base formulation I., 1.5 wt % component (a), T0) was 100, the “protease activity, referring” value ([1]; base formulation II., 1.5 wt % component (a), 3 d) was 99 and the “protease activity, referring” value ([1]; base formulation II., 1.5 wt % component (a), 7 d) was 96. For the same molecule, the “protease activity, referring” value ([1]; base formulation II., 1.5 wt % component (a), 14 d) was 90, the “protease activity, referring” value ([1]; base formulation II., 1.5 wt % component (a), 21 d) was 85 and the “protease activity, referring” value ([1]; base formulation II., 1.5 wt % component (a), 28 d) was 80. The “protease activity, referring” value ([1]; base formulation II., 1.5 wt % component (a), 42 d) was 69, the “protease activity, referring” value ([1]; base formulation II., 1.5 wt % component (a), T0) was 100 and the “protease activity, referring” value ([1]; base formulation III., 1.5 wt % component (a), 3 d) was 99. For the same molecule, the “protease activity, referring” value ([1]; base formulation III., 1.5 wt % component (a), 7 d) was 93, the “protease activity, referring” value ([1]; base formulation III., 1.5 wt % component (a), 14 d) was 88 and the “protease activity, referring” value ([1]; base formulation III., 1.5 wt % component (a), 21 d) was 85. The “protease activity, referring” value ([1]; base formulation III., 1.5 wt % component (a), 28 d) was 74, the “protease activity, referring” value ([1]; base formulation III., 1.5 wt % component (a), 42 d) was 67 and the “protease activity, referring” value ([1]; base formulation III., 1.5 wt % component (a), T0) was 100. The “protease activity, referring” value ([1]; base formulation IV., 2.0 wt % component (a), 3 d) was 96, the “protease activity, referring” value ([1]; base formulation IV., 2.0 wt % component (a), 7 d) was 92 and the “protease activity, referring” value ([1]; base formulation IV., 2.0 wt % component (a), 14 d) was 86. The “protease activity, referring” value ([1]; base formulation IV., 2.0 wt % component (a), 21 d) was 80, the “protease activity, referring” value ([1]; base formulation IV., 2.0 wt % component (a), 28 d) was 72 and the “protease activity, referring” value ([1]; base formulation IV., 2.0 wt % component (a), 42 d) was 65. For the same molecule, the “protease activity, referring” value ([1]; base formulation IV., 2.0 wt % component (a), T0) was 98, the “protease activity, referring” value ([1]; base formulation V., 2.0 wt % component (a), 3 d) was 94 and the “protease activity, referring” value ([1]; base formulation V., 2.0 wt % component (a), 7 d) was 90. The “protease activity, referring” value ([1]; base formulation V., 2.0 wt % component (a), 14 d) was 85, the “protease activity, referring” value ([1]; base formulation V., 2.0 wt % component (a), 21 d) was 81 and the “protease activity, referring” value ([1]; base formulation V., 2.0 wt % component (a), 28 d) was 75. For the same molecule, the “protease activity, referring” value ([1]; base formulation V., 2.0 wt % component (a), 42 d) was 65, the “protease activity, referring” value ([1]; base formulation V., 2.0 wt % component (a), T0) was 99 and the “amylase activity, referring to reference formulation at time 0” value (shortened to “amylase activity, referring”) ([2]; 3 d) was 100. For the same molecule, the “amylase activity, referring” value ([2]; 7 d) was 94, the “amylase activity, referring” value ([2]; 14 d) was 90 and the “amylase activity, referring” value ([2]; 21 d) was 84. For the same molecule, the “amylase activity, referring” value ([2]; 28 d) was 77, the “amylase activity, referring” value ([2]; 42 d) was 65 and the “amylase activity, referring” value ([2]; T0) was 100. The “amylase activity, referring” value ([3]; laundry base formulation IX. (2.5 DTPA), 3 d) was 98, the “amylase activity, referring” value ([3]; laundry base formulation IX. (2.5 DTPA), 7 d) was 90 and the “amylase activity, referring” value ([3]; laundry base formulation IX. (2.5 DTPA), 14 d) was 85. For the same molecule, the “amylase activity, referring” value ([3]; laundry base formulation IX. (2.5 DTPA), 21 d) was 78, the “amylase activity, referring” value ([3]; laundry base formulation IX. (2.5 DTPA), 28 d) was 70 and the “amylase activity, referring” value ([3]; laundry base formulation IX. (2.5 DTPA), T0) was 99. The “amylase activity, referring” value ([3]; laundry base formulation VI. (2.0 EDTA), 3 d) was 98, the “amylase activity, referring” value ([3]; laundry base formulation VI. (2.0 EDTA), 7 d) was 91 and the “amylase activity, referring” value ([3]; laundry base formulation VI. (2.0 EDTA), 14 d) was 86. The “amylase activity, referring” value ([3]; laundry base formulation VI. (2.0 EDTA), 21 d) was 81, the “amylase activity, referring” value ([3]; laundry base formulation VI. (2.0 EDTA), 28 d) was 73 and the “amylase activity, referring” value ([3]; laundry base formulation VI. (2.0 EDTA), T0) was 100. The “amylase activity, referring” value ([3]; laundry base formulation VII. (2.0 EDTA), 3 d) was 95, the “amylase activity, referring” value ([3]; laundry base formulation VII. (2.0 EDTA), 7 d) was 88 and the “amylase activity, referring” value ([3]; laundry base formulation VII. (2.0 EDTA), 14 d) was 79. The “amylase activity, referring” value ([3]; laundry base formulation VII. (2.0 EDTA), 21 d) was 73, the “amylase activity, referring” value ([3]; laundry base formulation VII. (2.0 EDTA), 28 d) was 68 and the “amylase activity, referring” value ([3]; laundry base formulation VII. (2.0 EDTA), T0) was 100. For the same molecule, the “amylase activity, referring” value ([3]; laundry base formulation VIII. (2.5 DTPA, no Savinase), 3 d) was 98, the “amylase activity, referring” value ([3]; laundry base formulation VIII. (2.5 DTPA, no Savinase), 7 d) was 93 and the “amylase activity, referring” value ([3]; laundry base formulation VIII. (2.5 DTPA, no Savinase), 14 d) was 88. For the same molecule, the “amylase activity, referring” value ([3]; laundry base formulation VIII. (2.5 DTPA, no Savinase), 21 d) was 83, the “amylase activity, referring” value ([3]; laundry base formulation VIII. (2.5 DTPA, no Savinase), 28 d) was 75 and the “amylase activity, referring” value ([3]; laundry base formulation VIII. (2.5 DTPA, no Savinase), T0) was 100.
